Laboratory results from BigSolDB 2.1.

SMILES | solubility (mole fraction) (in isobutanol, 283.15 K) | solubility (mole fraction) (in isobutanol, 293.15 K) | solubility (mole fraction) (in isobutanol, 303.15 K) | solubility (mole fraction) (in isobutanol, 313.15 K) | solubility (mole fraction) (in isobutanol, 323.15 K) | solubility (mole fraction) (in isobutanol, 333.15 K) | solubility (mole fraction) (in isopropanol, 283.15 K) | solubility (mole fraction) (in isopropanol, 293.15 K) | solubility (mole fraction) (in isopropanol, 303.15 K) | solubility (mole fraction) (in isopropanol, 313.15 K) | solubility (mole fraction) (in isopropanol, 323.15 K) | solubility (mole fraction) (in isopropanol, 333.15 K) | solubility (mole fraction) (in n-butanol, 283.15 K) | solubility (mole fraction) (in n-butanol, 293.15 K) | solubility (mole fraction) (in n-butanol, 303.15 K) | solubility (mole fraction) (in n-butanol, 313.15 K) | solubility (mole fraction) (in n-butanol, 323.15 K) | solubility (mole fraction) (in n-butanol, 333.15 K) | solubility (mole fraction) (in n-pentanol, 283.15 K) | solubility (mole fraction) (in n-pentanol, 293.15 K) | other results
CNC(=O)c1cc(Oc2ccc(NC(=O)Nc3ccc(Cl)c(C(F)(F)F)c3)cc2)ccn1 | 0.000253 | 0.000379 | 0.000715 | 0.00104 | 0.00155 | 0.00216 | 0.000509 | 0.000638 | 0.00104 | 0.00152 | 0.00226 | 0.00325 | 0.000645 | 0.000816 | 0.0013 | 0.00193 | 0.00288 | 0.00417 | 0.000599 | 0.000819 | solubility (mole fraction) (in n-pentanol, 303.15 K): 0.00122; solubility (mole fraction) (in n-pentanol, 313.15 K): 0.00173; solubility (mole fraction) (in n-pentanol, 323.15 K): 0.00256; solubility (mole fraction) (in n-pentanol, 333.15 K): 0.00377; solubility (mole fraction) (in n-propanol, 283.15 K): 0.000678; solubility (mole fraction) (in n-propanol, 293.15 K): 0.000888; solubility (mole fraction) (in n-propanol, 303.15 K): 0.00137; solubility (mole fraction) (in n-propanol, 313.15 K): 0.00204; solubility (mole fraction) (in n-propanol, 323.15 K): 0.00313; solubility (mole fraction) (in n-propanol, 333.15 K): 0.00456
CNC(=O)c1cc(Oc2ccc(NC(=O)Nc3ccc(Cl)c(C(F)(F)F)c3)cc2)ccn1.Cc1ccc(S(=O)(=O)O)cc1 | 6.18e-05 | 9.67e-05 | 0.000149 | 0.000216 | 0.000284 | 0.000423 | 7.81e-05 | 0.000109 | 0.00016 | 0.000229 | 0.000311 | 0.000442 | 0.000132 | 0.000163 | 0.000238 | 0.000316 | 0.000419 | 0.000541 | 5.78e-05 | 8.76e-05 | solubility (mole fraction) (in n-pentanol, 303.15 K): 0.000148; solubility (mole fraction) (in n-pentanol, 313.15 K): 0.000209; solubility (mole fraction) (in n-pentanol, 323.15 K): 0.000272; solubility (mole fraction) (in n-pentanol, 333.15 K): 0.000394; solubility (mole fraction) (in n-propanol, 283.15 K): 0.000139; solubility (mole fraction) (in n-propanol, 293.15 K): 0.000175; solubility (mole fraction) (in n-propanol, 303.15 K): 0.000258; solubility (mole fraction) (in n-propanol, 313.15 K): 0.000344; solubility (mole fraction) (in n-propanol, 323.15 K): 0.000456; solubility (mole fraction) (in n-propanol, 333.15 K): 0.000622
